What was measured:
[1] = target: T1, Androgen (Testosterone) (Homo sapiens, UniProt P10275); assay: Safetyscreen: Androgen; format: binding; conditions: read-out: % Inh. Androgen (Testosterone)
T1 construct: Eurofins Cerep Panlabs (contract panel)

[2] = tested on: macrophages from primary human monocytes; assay: Numbers of live monocyte-derived macrophages in vitro; format: cell-based; conditions: C86 treated TCM or BMS493; three days
Description: FIGS. 24A-24E: Raldh1-INH blocks tumor supportive functions of monocytes and macrophages. FIG. 24A: Circulating primary human monocytes were collected from donors and cultured with MCSF (50 ng/mL) to generate macrophages. On day 3 of these cultures, DMSO or RA (100 nmol/L) was added to generate control monocyte-derived macrophages (Control-MoDM) or RA monocyte-derived macrophages (RA-MoDM), respectively. On day 7 of these cultures, macrophages were collected for each well after washing with 1×PBS, mixed with Huh7 cells at approximately 50:50 ratio, and the mix injected into the flanks of NU/J mice. Huh7 tumors cells that were not mixed with any macrophages before flank injection served as an additional control. Tumor volume was measured every 2 days (left graph). 19 days after tumor injection, mice were sacrificed and tumor weight (right graph) was measured. […] Three or more independent experiments were performed with at least three replicates per experimental group. Unpaired t test, two-tailed. […] Tumor growth was monitored daily (left graph). 13 days after tumor cell transplantation, mice were sacrificed and tumor weight measured (right graph). […] Three days later, cells were harvested, counted, and stained with PI for FCS analyses. […] Cell proliferation was measured by counting live cell numbers (y-axis). […] 72 hours later, the cells were washed, counted, and analyzed by FCS. […]

[3] = tested on: murine monocytes from bone marrow; assay: Murine monocyte DC differentiation with SNU398 cells or conditioned media; format: cell-based, mouse; conditions: HCC cells pre-treated
Text: FIGS. 22A-22E: RALDH1 inhibition blocks RA-mediated effects of HCC on monocyte differentiation. FIGS. 22A-22B: Circulating primary human monocytes from donors (FIG. 22A) or murine monocytes from bone marrow (FIG. 22B) were cocultured with SNU398 (Human HCC) cells or treated with SNU398-conditioned media (CM) in a DC differentiation system (GM-CSF and IL-4). Two-color histograms show the frequencies of DCs (CD11c^+CD1a^+ for human and CD11c^+MHCII^+ for mouse). The presence of SNU398 or its CM suppressed DC differentiation, which is reversed when SNU398 cells are treated with C86. Three or more independent experiments were performed with at least three replicates per experimental group. Unpaired t test, two-tailed. FIG. 22C: Huh7 (human HCC) cells were subcutaneously injected into flanks of NU/J mice. 12 days later the tumor size was about 50 mm^3 and C86 or vehicle treatment (10 mg/kg, i.p, daily injection) was started. […] The frequencies of the host (murine) DCs (CD45^+F4/80^−CD11C^+MHCII-high) and macrophages (CD45^+F4/80^+) are quantified in a bar graph. […] Shown are the representative FCM plot (histogram) and DC quantification (bar graph). […]
Monocytes were isolated from bone marrow of C57BL/6 mice using the Mouse BM Monocyte Isolation Kit (Miltenyi Biotec) according to manufacturer's instructions. Purity of monocyte was assessed by flow cytometry using CD11b, Ly6C, and Ly6G. […]

T1 sequence (P10275 whole entry): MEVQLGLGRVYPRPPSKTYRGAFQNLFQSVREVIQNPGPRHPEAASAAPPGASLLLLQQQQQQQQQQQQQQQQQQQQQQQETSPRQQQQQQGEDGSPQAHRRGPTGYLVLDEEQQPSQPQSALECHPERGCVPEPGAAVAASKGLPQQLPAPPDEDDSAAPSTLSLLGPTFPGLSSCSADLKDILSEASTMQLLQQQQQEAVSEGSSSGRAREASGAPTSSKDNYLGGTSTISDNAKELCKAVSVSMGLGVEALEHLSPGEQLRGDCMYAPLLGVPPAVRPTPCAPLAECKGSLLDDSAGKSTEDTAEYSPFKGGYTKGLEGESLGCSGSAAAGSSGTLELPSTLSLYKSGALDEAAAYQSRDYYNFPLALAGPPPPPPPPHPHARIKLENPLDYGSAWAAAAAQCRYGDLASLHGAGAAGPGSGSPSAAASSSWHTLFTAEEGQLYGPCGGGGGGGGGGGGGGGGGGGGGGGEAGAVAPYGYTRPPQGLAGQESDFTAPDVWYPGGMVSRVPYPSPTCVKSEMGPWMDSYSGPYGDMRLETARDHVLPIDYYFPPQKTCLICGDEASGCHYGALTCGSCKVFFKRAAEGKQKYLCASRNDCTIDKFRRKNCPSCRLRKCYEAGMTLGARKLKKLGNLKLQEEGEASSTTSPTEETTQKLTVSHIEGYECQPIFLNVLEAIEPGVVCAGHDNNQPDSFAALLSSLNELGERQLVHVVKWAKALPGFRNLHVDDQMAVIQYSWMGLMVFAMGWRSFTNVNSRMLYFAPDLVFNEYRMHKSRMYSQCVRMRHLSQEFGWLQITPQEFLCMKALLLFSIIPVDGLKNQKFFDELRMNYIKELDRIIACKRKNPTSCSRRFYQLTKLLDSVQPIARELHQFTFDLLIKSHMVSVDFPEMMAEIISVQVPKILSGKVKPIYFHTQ

CS(=O)(=O)N1CCN(C(=O)c2cnc3ccc(F)cc3c2N2CCC(C#N)(c3ccccc3)CC2)CC1 [Compound C-86, 1-(6-fluoro-3-(4-(methylsulfonyl)piperazine-1-carbonyl)quinolin-4-yl)-4-phenylpiperidine-4-carbonitrile]
inhibition at 10 µM [1]: 16%
RA and tumor-CM induced increase in macrophage numbers [2]: reversed
suppression of DC differentiation by HCC cells or CM [3]: reversed

— patent US20260248799A1, “COMBINATIONS OF RETINALDEHYDE DEHYDROGENASE 1 (RALDH1) INHIBITORS AND IMMUNOSTIMULATORS AND METHODS USING SAME” (The Trustees of the University of Pennsylvania, priority 2023, published 2026)
